Values quoted from earlier work in PMC4875935 (Clinical Pharmacokinetics, 2015).
“And” between values parts separate entries of the source, which are not always exact repeats. Equal values may be shown once.

What was measured:
Candida albicans = conditions: neutropenic mouse model of disseminated Candida albicans
[1] = not given; remark: listed apart in the source

For `CC[C@H](C)C[C@H](C)CCCCCCCCC(=O)N[C@H]1C[C@@H](O)[C@@H](NCCN)NC(=O)[C@@H]2[C@@H](O)CCN2C(=O)[C@H]([C@H](O)CCN)NC(=O)[C@H]([C@H](O)[C@@H](O)c2ccc(O)cc2)NC(=O)[C@@H]2C[C@@H](O)CN2C(=O)[C@H]([C@@H](C)O)NC1=O` [caspofungin], the tolerability (invasive candidiasis; 150 mg daily, patients with invasive candidiasis) is listed as “well-tolerated”, the “clinical and mycological cure at the end of therapy” value (invasive candidiasis; reported response rates in the literature) is listed as 72–73% and the epidemiological cut-off value (C. albicans) is listed as 0.12 µg/mL. The “mode MIC” value (C. albicans) was 0.03 µg/mL, the CL (earlier studies amongst other patient groups) was 0.40 L/h and 0.46 L/h and the AUC24 typically observed (typically observed for caspofungin) was 100000 ng·h/mL. For the same compound, the “AUC/MIC ratio associated with a 1-log kill/24 h” value (Candida albicans) was 865 and the protein bound [1] was 92–97%.
